Results taken from US20070010529A1, “Nitrogenous heterocyclic compounds and medical use thereof” (priority 2003, published 2007).

Assays:
[1] = molecular target: recombinant human p38 αMAP kinase (Homo sapiens, UniProt Q16539); experiment: Study on p38 αMAP kinase inhibitory activity (ATF-2 phosphorylation, Alpha Screen); type: biochemical; details: phosphorylation of biotinylated ATF2 by recombinant human p38 αMAP kinase, 30° C. for 30 minutes
Protocol: (1) Study on p38 αMAP Kinase Inhibitory Activity
Using activation transcription factor 2 (hereinafter abbreviated as ATF-2) which is a substrate for p38 αMAP kinase, the inhibitory action of the compounds of the present invention was investigated on the phosphorylation by a recombinant human p38 αMAP kinase.
A kinase buffer (25 mM Tris-HCl (pH 7.5), 5 mM β-glycerophosphate, 2 mM dithiothreitol, 0.1 mM Na3VO4, 10 mM MgCl2) containing a recombinant human p38 αMAP kinase was added to a 384-well plate (5 μL)(6.25 μg protein/well) for fluorescence measurement. After addition of a kinase buffer (5 μL) containing the compound of the present invention, the resulting mixture was incubated at room temperature for 20 minutes. A substrate mixture (5 μL) of biotinylated ATF2 of 5 μg/mL (Upstate Biotechnology #14-432), adenosine triphosphate (90 μmol/L)(Sigma #FL-AAS) and anti-phosphorylated ATF2 antibody (20-fold dilution)(Cell Signaling Technology #9221L) prepared separately was added thereto, and enzyme reaction was carried out at 30° C. for 30 minutes. After the reaction, Herpes buffer (5 μL) containing 0.25% BSA and 100 mM EDTA was added to stop the enzyme reaction. The amount of a complex of the phosphorylated ATF2 and anti-phosphorylated ATF2 antibody produced by the reaction was measured using an Alpha Screen™ Rabbit Detection kit (Packard #6760607).
The p38 αMAP kinase inhibitory activity, which is the effect of the compound of the present invention, was calculated as an inhibition rate (%) according to the following equation: Inhibition rate (%)={(AC minus AX)/(AC minus AB)}×100 wherein AB is a measured value without addition of the enzyme; AC is a measured value with addition of the enzyme in the absence of a test compound; and AX is a measured value with addition of the enzyme in the presence of a test compound.
Inhibition rate of compounds with each concentration was calculated, and a value indicating 50% inhibition (IC50) was determined from the inhibition curve.

[2] = system: TNF-α production in THP-1 (human monocyte cell line); experiment: Inhibitory activity against TNF-α production using human cell lines (LPS-stimulated THP-1); type: cell-based; details: 1.5 h, THP-1 cells stimulated by LPS, cultured for 90 minutes, TNF-α by ELISA
Protocol: (2) Inhibitory Activity Against TNF-α Production Using Human Cell Lines
Using THP-1 which is a human monocyte cell line, the inhibitory effect of the compound of the present invention against TNF-α production stimulated by lipopolysaccharide (LPS) was studied.
Each 50 μL of lipopolysaccharide (LPS; Difco #3120-25-0) prepared to a concentration of 40 ng/mL using RPMI-1640 medium containing 10% fetal calf serum (hereinafter abbreviated as RPMI-1640) and RPMI-1640 containing the compound of the present invention was added to a 96-well plate for cell culture. One hundred μL of the cell suspension of THP-1 (Dainippon Pharmaceutical Co., Ltd, #06-202) prepared to a cell density of 2×10^6 cells/mL using RPMI-1640 was added and cultured for 90 minutes at 37° C. in an incubator (5% CO2, 95% air). After completion of the reaction, the culture medium supernatant was recovered and the amount of produced TNF-α was measured using an ELISA kit (Invitrogen, #850090192).
The inhibitory activity against TNF-α production, which is the effect of the compound of the present invention, was calculated as an inhibition rate (%) by the following equation: Inhibition rate (%)={(AC minus AX)/(AC minus AB)}×100 wherein AB is a measured value without LPS induction; AC is a measured value with LPS induction in the absence of a test compound; and AX is a measured value with LPS induction in the presence of a test compound. Inhibition rate of compounds with each concentration was calculated, and a value indicating 50% inhibition (IC50) was determined from the inhibition curve.

[3] = system: TNF-α production induced by lipopolysaccharide (LPS); experiment: Rat cytokine-production model (LPS-induced TNF-α production in vivo); details: dose of 10 mg/kg orally; LPS 10 μg/kg intravenously after 2.0 hours; plasma ninety minutes after LPS
Protocol: (3) Rat Cytokine-Production Model
The in vivo effect of the compound of the present invention was studied on TNF-α production induced by lipopolysaccharide (LPS) in rats.
A medium containing the compound of the present invention was orally administered to male […] (Charles River Japan, Inc.), and after 2.0 hours, lipopolysaccharide (LPS, 055:B5, Difco) was intravenously administered at the dose of 10 μg/kg (5 animals/group). Only a medium was orally administered to a control group (5 animals). Ninety minutes after the LPS treatment, heparinized blood collection was performed via the abdominal cava vein under anesthesia with ether, and blood plasma was obtained by centrifugation (12,000 rpm, 3 minutes, 4° C.). The obtained blood plasma sample was stored at −80° C. until it was used. TNF-α in the blood plasma was measured using an ELISA kit from Genzyme/Techne (#10516).
The inhibitory activity of the compound of the present invention against TNF-α production was calculated as an inhibition rate (%) according to the following equation: Inhibition rate (%)={(AC minus AX)/AC}×100 wherein AC is a measured value in case where no test compound was administered under LPS induction, and AX is a measured value in case where a test compound was administered under LPS induction.

[4] = system: Human CYP3A4; experiment: Evaluation of human CYP3A4 induction activity (HepG2 cells, hPXR/CYP3A4 luciferase reporter); type: in vitro ADME; details: concentration of 10 μM, rifampicin (10 μmol/L) set to 100%
Protocol: (4) Evaluation of Human CYP3A4 Induction Activity
HepG2 cells were cultured in a 5% CO2 incubator at 37° C., using a medium [MEM(+)] prepared by adding 1/100-fold amount of non-essential amino acids for MEM Eagle's medium (100×, ICN, #1681049), Antibiotic-Antimycotic (100×, Gibco, #15240-096), L-glutamine 200 mM (100×, Gibco, #25030-081) and 1/10-fold amount of fetal bovine serum (Sigma, #F9423) to a minimum essential medium Eagle (Mod.) with Earle's salts without L-glutamine. The medium was exchanged once every 2 to 3 days. About one-fifth of the cells which were cultured to a confluent state were passaged once a week. HepG2 cells which were cultured to almost confluent state in a 225 cm^2 culture flask were inoculated to a 24-well plate (Iwaki, #3820-024) to a concentration of 5×10^4 cells/MEM(+) of 500 μL/well. […] Twenty μL/well of the prepared cell lysis solution was transferred to a 96-well white plate (Perkin Elmer, #23300), and using a luminometer (Berthold Japan, Microlumat LB96P), each chemical luminescence was measured for 2 to 14 seconds after addition of luciferase assay reagent II [(LARII), 100 μL/well)] and for 2 to 14 seconds after addition of Stop & Glo reagent, 100 μL/well). […]
The CYP3A4 induction activity was calculated by setting a rise in transcription activity of CYP3A4 to 100% when using rifampicin (10 μmol/L) as a positive control drug.

[5] = molecular target: Human CYP2C9 (Homo sapiens, UniProt P11712); experiment: Evaluation of human CYP2C9 inhibitory activity; type: in vitro ADME
Sequence of Human CYP2C9 (P11712 whole entry): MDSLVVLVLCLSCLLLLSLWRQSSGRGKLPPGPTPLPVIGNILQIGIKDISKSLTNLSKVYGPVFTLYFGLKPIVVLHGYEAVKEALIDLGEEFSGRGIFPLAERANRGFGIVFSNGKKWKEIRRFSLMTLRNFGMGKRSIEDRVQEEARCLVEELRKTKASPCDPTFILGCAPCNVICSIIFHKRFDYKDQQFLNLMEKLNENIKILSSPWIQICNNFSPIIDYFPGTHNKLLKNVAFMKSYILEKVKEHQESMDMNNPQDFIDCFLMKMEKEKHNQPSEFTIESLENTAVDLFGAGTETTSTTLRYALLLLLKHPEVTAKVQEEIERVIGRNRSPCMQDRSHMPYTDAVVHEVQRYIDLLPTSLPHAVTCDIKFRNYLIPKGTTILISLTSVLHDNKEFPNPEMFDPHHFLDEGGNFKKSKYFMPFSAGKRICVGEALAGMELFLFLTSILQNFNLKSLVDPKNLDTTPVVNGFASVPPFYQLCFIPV
Protocol: (5) Evaluation of Human CYP2C9 Inhibitory Activity
The CYP2C9 inhibitory activity of the compound of the present invention was evaluated by enhancing measurement precision and improving measurement sensitivity on the basis of Sato et. al method [Pharmacokinetics, Xenobio. Metabol. and Dispos., 16(2), 115-126 (2001)].

Sequence of recombinant human p38 αMAP kinase (Q16539 whole entry): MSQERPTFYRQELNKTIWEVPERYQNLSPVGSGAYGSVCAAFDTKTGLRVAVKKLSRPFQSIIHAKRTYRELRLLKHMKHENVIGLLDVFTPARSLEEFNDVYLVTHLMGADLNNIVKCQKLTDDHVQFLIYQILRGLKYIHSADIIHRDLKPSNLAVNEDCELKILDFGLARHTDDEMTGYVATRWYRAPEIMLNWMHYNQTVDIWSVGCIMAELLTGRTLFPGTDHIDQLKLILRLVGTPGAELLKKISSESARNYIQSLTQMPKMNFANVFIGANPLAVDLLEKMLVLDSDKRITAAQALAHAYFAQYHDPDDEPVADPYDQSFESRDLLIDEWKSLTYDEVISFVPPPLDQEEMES

Cc1ccc(-n2nc(C(C)(C)C)cc2NC(=O)Nc2cc(CN3CCN(C(=O)c4ccc(CN5CCN(C)CC5)cc4)CC3)ccc2Cl)cc1 [13(2), N-[3-t-butyl-1-(4-methylphenyl)-1H-pyrazol-5-yl]-N′-{2-chloro-5-[(4-{4-[(4-methylpiperazin-1-yl)methyl]benzoyl}piperazin-1-yl)methyl]phenyl}urea] was tested, and the IC50 [1] was 2.5 nM and the IC50 [2] was 21 nM.

Cc1ccc(-n2nc(C(C)(C)C)cc2NC(=O)Nc2ccc(CN3CCC(=O)N(c4ccccc4C)C3)cc2)cc1 [Example 4(1), N-[3-t-butyl-1-(4-methylphenyl)-1H-pyrazol-5-yl]-N′-(4-{[3-(2-methylphenyl)-4-oxotetrahydropyrimidin-1(2H)-yl]methyl}phenyl)urea] was tested, and the IC50 [1] was 2.9 nM, the IC50 [2] was 2.3 nM and the “inhibition against in vivo TNF-α production induced by LPS stimulation” value [3] was 72.8%.

With Cc1ccc(-n2nc(C(C)(C)C)cc2NC(=O)Nc2ccc(CN3CCN(C(=O)c4ccc(CN5CCN(C)CC5)cc4)CC3)cc2C)cc1 [Example 13(1), N-[3-t-butyl-1-(4-methylphenyl)-1H-pyrazol-5-yl]-N′-{2-methyl-4-[(4-{4-[(4-methylpiperazin-1-yl)methyl]benzoyl}piperazin-1-yl)methyl]phenyl}urea] the IC50 [1] was 5.6 nM, the IC50 [2] was 35 nM and the CYP3A4 induction activity [4] was “did not show CYP3A4 induction activity at all”. For the same compound, the IC50 [5] was 21000 nM.

For Cc1ccc(-n2nc(C(C)(C)C)cc2NC(=O)Nc2ccc(OC3CCN(C(=O)c4ccc(CN5CCN(C)CC5)cc4)CC3)cc2C)cc1 [Example 17, N-[3-t-butyl-1-(4-methylphenyl)-1H-pyrazol-5-yl]-N′-{2-methyl-4-[(1-{4-[(4-methylpiperazin-1-yl)methyl]benzoyl}piperidin-4-yl)oxy]phenyl}urea], the IC50 [1] was 3.8 nM and the IC50 [2] was 17 nM.
